Reference: patent US9540391B2, “Isomannide derivatives as inhibitors of soluble epoxide hydrolase” (SANOFI, priority 2013, dated 2017)

Each molecule was assayed against T1, recombinant sEH (Homo sapiens, UniProt P34913) (assay: biochemical screening assay for inhibition of soluble epoxide hydrolase (fluorometric, Phome substrate)).
T1 construct: made in house; host or cells: Sf9 insect cells
T1 sequence (P34913 1-555): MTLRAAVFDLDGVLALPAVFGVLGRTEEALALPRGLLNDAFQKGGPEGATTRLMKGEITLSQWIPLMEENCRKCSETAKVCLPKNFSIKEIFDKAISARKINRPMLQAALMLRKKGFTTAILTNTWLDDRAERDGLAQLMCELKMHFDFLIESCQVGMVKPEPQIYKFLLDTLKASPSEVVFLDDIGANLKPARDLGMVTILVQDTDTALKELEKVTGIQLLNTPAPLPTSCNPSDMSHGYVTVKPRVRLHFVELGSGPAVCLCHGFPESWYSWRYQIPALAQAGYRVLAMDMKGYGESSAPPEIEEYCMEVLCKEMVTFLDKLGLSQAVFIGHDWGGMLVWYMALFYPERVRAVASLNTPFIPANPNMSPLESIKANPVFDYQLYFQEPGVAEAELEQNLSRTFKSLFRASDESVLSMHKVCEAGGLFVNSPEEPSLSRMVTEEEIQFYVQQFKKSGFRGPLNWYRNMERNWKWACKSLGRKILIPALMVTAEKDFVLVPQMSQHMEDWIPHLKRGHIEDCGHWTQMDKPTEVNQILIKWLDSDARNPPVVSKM
Procedure, shortened: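 Human sEH from Sf9 cells (2 nM final) was pre-incubated 15 min at 30 °C with compound (0.0001–10 μM), then reacted 60 min at 30 °C with 5 μM Phome in 25 mM Hepes/0.01% albumin. Fluorescence of released 6-methoxy-2-naphthaldehyde was read before substrate and at end; IC50 from % inhibition.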

Row | Structure (SMILES) | IC50
1 | O=C(Nc1ccc(F)cc1)NC1COC2C(C=Cc3ccccc3)COC12 [Example 328, 1-(4-Fluoro-phenyl)-3-[(3S,3aR,6R)-6-((S)-(Z)-styryl)-hexahydro-furo[3,2-b]furan-3-yl]-urea] | 98 nM
2 | O=C(Nc1ccc(F)cc1)NC1COC2C(C#Cc3ccccc3)COC12 [Example 292, 1-(4-Fluoro-phenyl)-3-[(3S,3aR,6R)-6-((S)-phenylethynyl)-hexahydro-furo[3,2-b]furan-3-yl]-urea] | 46 nM
3 | Cc1ncccc1O[C@H]1CO[C@H]2[C@@H]1OC[C@@H]2NC(=O)N[C@H]1C[C@H]2C[C@@H]([C@@H]1C)C2(C)C [Example 186, 1-[(3S,3aR,6S,6aS)-6-(2-Methyl-pyridin-3-yloxy)-hexahydro-furo[3,2-b]furan-3-yl]-3-((1S,2S,3S,5R)-2,6,6-trimethyl-bicyclo[3.1.1]hept-3-yl)-urea] | 2 nM
4 | Cc1ncccc1O[C@H]1CO[C@H]2[C@@H]1OC[C@@H]2NC(=O)NC1CCCC(C)C1C (stereo partly drawn) [Example 261, 1-(2,3-Dimethyl-cyclohexyl)-3-[(3S,3aR,6S,6aS)-6-(2-methyl-pyridin-3-yloxy)-hexahydro-furo[3,2-b]furan-3-yl]-urea] | 3 nM
5 | O=C(Nc1ccc(OC(F)(F)F)cc1)N[C@H]1CO[C@@H]2[C@@H](CCc3ccccc3)CO[C@@H]21 [Example 372, 1-((3S,3aR,6S,6aR)-6-Phenethyl-hexahydro-furo[3,2-b]furan-3-yl)-3-(4-trifluoromethoxy-phenyl)-urea] | 11 nM
6 | Cc1ncccc1O[C@H]1CO[C@H]2[C@@H]1OC[C@@H]2NC(=O)NCCN1CCCC1=O [Example 236, 1-[(3S,3aR,6S,6aS)-6-(2-Methyl-pyridin-3-yloxy)-hexahydro-furo[3,2-b]furan-3-yl]-3-[2-(2-oxo-pyrrolidin-1-yl)-ethyl]-urea] | 3840 nM
7 | Cc1ncccc1O[C@H]1CO[C@H]2[C@@H]1OC[C@@H]2NC(=O)NCc1ccccc1OC(F)(F)F [Example 179, 1-[(3S,3aR,6S,6aS)-6-(2-Methyl-pyridin-3-yloxy)-hexahydro-furo[3,2-b]furan-3-yl]-3-(2-trifluoromethoxy-benzyl)-urea] | < 1 nM
8 | C[C@@H](NC(=O)N[C@H]1CO[C@H]2[C@@H]1OC[C@@H]2Oc1ccc(F)cc1)c1ccccc1 [Example 162, 1-[(3S,3aR,6S,6aS)-6-(4-Fluoro-phenoxy)-hexahydro-furo[3,2-b]furan-3-yl]-3-((R)-1-phenyl-ethyl)-urea] | 39 nM
9 | O=C(NC1CCCCC1)N[C@H]1CO[C@H]2[C@@H]1OC[C@@H]2/C=C\c1ccc2c(c1)OCO2 [Example 317, 1-[(3S,3aR,6S,6aR)-6-((Z)-2-Benzo[1,3]dioxol-5-yl-vinyl)-hexahydro-furo[3,2-b]furan-3-yl]-3-cyclohexyl-urea] | 3 nM
10 | O=C(NCCc1ccccc1)N[C@H]1CO[C@@H]2[C@@H](CCc3ccccc3)CO[C@@H]21 [Example 371, 1-Phenethyl-3-((3S,3aR,6S,6aR)-6-phenethyl-hexahydro-furo[3,2-b]furan-3-yl)-urea] | 24 nM
11 | Cc1ncccc1O[C@H]1CO[C@H]2[C@@H]1OC[C@@H]2NC(=O)NCCN1CCCCC1=O [Example 251, 1-[(3S,3aR,6S,6aS)-6-(2-Methyl-pyridin-3-yloxy)-hexahydro-furo[3,2-b]furan-3-yl]-3-[2-(2-oxo-piperidin-1-yl)-ethyl]-urea] | 1560 nM
12 | O=C(NCCc1ccccc1)N[C@H]1CO[C@H]2[C@@H]1OC[C@@H]2/C=C\c1ccccc1 [Example 331, 1-Phenethyl-3-[(3S,3aR,6S,6aR)-6-((Z)-styryl)-hexahydro-furo[3,2-b]furan-3-yl]-urea] | 18 nM

The next lines start with the values.

Row | IC50 | Structure (SMILES)
13 | 8 nM | O=C(NC1CCCCC1)N[C@H]1CO[C@H]2[C@@H]1OC[C@@H]2Oc1ccc(Cl)nc1 [Example 51, 1-[(3S,3aR,6S,6aS)-6-(6-Chloro-pyridin-3-yloxy)-hexahydro-furo[3,2-b]furan-3-yl]-3-cyclohexyl-urea]
14 | 454 nM | O=C(NC1CCCCC1)N[C@H]1CO[C@H]2[C@@H]1OC[C@@H]2Oc1ccccc1-c1nnn[nH]1 [Example 26, 1-Cyclohexyl-3-{(3S,3aR,6S,6aS)-6-[2-(1H-tetrazol-5-yl)-phenoxy]-hexahydro-furo[3,2-b]furan-3-yl}-urea]
15 | 3 nM | O=C(NC1CCCCC1)N[C@H]1CO[C@H]2[C@@H]1OC[C@@H]2Oc1cncc(Cl)c1 [Example 33, 1-[(3S,3aR,6S,6aS)-6-(5-Chloro-pyridin-3-yloxy)-hexahydro-furo[3,2-b]furan-3-yl]-3-cyclohexyl-urea]
16 | 2 nM | O=C(NC1CCCCC1)N[C@H]1CO[C@H]2[C@@H]1OC[C@@H]2Oc1cc(Br)ccc1Cl [Example 147, 1-[(3S,3aR,6S,6aS)-6-(5-Bromo-2-chloro-phenoxy)-hexahydro-furo[3,2-b]furan-3-yl]-3-cyclohexyl-urea]
17 | 9 nM | O=C(NC1CCCCC1)N[C@H]1CO[C@H]2[C@@H]1OC[C@@H]2OCC(F)(F)F [Example 19, 1-Cyclohexyl-3-[(3S,3aR,6S,6aS)-6-(2,2,2-trifluoro-ethoxy)-hexahydro-furo[3,2-b]furan-3-yl]-urea]
18 | 2 nM | Cc1ncccc1O[C@H]1CO[C@H]2[C@@H]1OC[C@@H]2NC(=O)N[C@H]1CC[C@H](C)CC1 [Example 267, 1-(trans-4-Methyl-cyclohexyl)-3-[(3S,3aR,6S,6aS)-6-(2-methyl-pyridin-3-yloxy)-hexahydro-furo[3,2-b]furan-3-yl]-urea]
19 | 3 nM | O=C(NC1CCCCC1)N[C@H]1CO[C@H]2[C@@H]1OC[C@@H]2Oc1cccc(Oc2ccccc2)c1 [Example 27, 1-Cyclohexyl-3-[(3S,3aR,6S,6aS)-6-(3-phenoxy-phenoxy)-hexahydro-furo[3,2-b]furan-3-yl]-urea]
20 | 3 nM | CC(=O)Nc1ccc(O[C@H]2CO[C@H]3[C@@H]2OC[C@@H]3NC(=O)NC2CCCCC2)cc1 [Example 113, N-{4-[(3S,3aS,6S,6aR)-6-(3-Cyclohexyl-ureido)-hexahydro-furo[3,2-b]furan-3-yloxy]-phenyl}-acetamide]
21 | 4 nM | CC1(C)CC(=O)c2cc(O[C@H]3CO[C@H]4[C@@H]3OC[C@@H]4NC(=O)NC3CCCCC3)ccc2O1 [Example 114, 1-Cyclohexyl-3-[(3S,3aR,6S,6aS)-6-(2,2-dimethyl-4-oxo-chroman-6-yloxy)-hexahydro-furo[3,2-b]furan-3-yl]-urea]
22 | 24 nM | C[C@H](NC(=O)N[C@H]1CO[C@H]2[C@@H]1OC[C@@H]2Oc1ccc(F)cc1)C1CCCCC1 [Example 156, 1-((S)-1-Cyclohexyl-ethyl)-3-[(3S,3aR,6S,6aS)-6-(4-fluoro-phenoxy)-hexahydro-furo[3,2-b]furan-3-yl]-urea]
23 | 96 nM | Cc1ncccc1O[C@H]1CO[C@H]2[C@@H]1OC[C@@H]2NC(=O)NCC1(O)CCCCC1 [Example 182, 1-(1-Hydroxy-cyclohexylmethyl)-3-[(3S,3aR,6S,6aS)-6-(2-methyl-pyridin-3-yloxy)-hexahydro-furo[3,2-b]furan-3-yl]-urea]
24 | 42 nM | O=C(NC1CCCCC1)N[C@H]1CO[C@H]2[C@@H]1OC[C@@H]2Oc1cncnc1 [Example 44, 1-Cyclohexyl-3-[(3S,3aR,6S,6aS)-6-(pyrimidin-5-yloxy)-hexahydro-furo[3,2-b]furan-3-yl]-urea]
25 | 1 nM | Cc1ncccc1O[C@H]1CO[C@H]2[C@@H]1OC[C@@H]2NC(=O)NC1CCCC(C(F)(F)F)C1 (stereo partly drawn) [Example 90, 1-[(3S,3aR,6S,6aS)-6-(2-methyl-pyridin-3-yloxy)-hexahydro-furo[3,2-b]furan-3-yl]-3-(3-trifluoromethyl-cyclohexyl)-urea]
